System: HBV replication (HBV plus-polarity DNA strand)
Assay: HBV replication inhibition, strand preferential qPCR in hepDES19 cells
Assay type: cell-based, hepatitis B virus
Details: not given
Protocol: HBV replication inhibition was measured in hepDES19 cells following 72 h compound exposure without compound replenishment. EC50 values were determined by HBV plus-polarity strand suppression using a strand preferential qPCR assay, as described previously ([28]). Three or more replicate values were obtained on different days.

Row | Compound | HepDES19 SI (CC50/EC50)
1 | CC(=NOCc1ccc(Cl)cc1)c1c(C)cc(=O)n(O)c1O [Compound 1466] | 130
2 | CC(=NOCc1cc(F)ccc1F)c1c(C)cc(=O)n(O)c1O [Compound 1810] | 54.0

Same assay, conditions: 72 h exposure, HBV plus-polarity strand suppression, highest concentration tested 100 µM, mean ± SD, read-out: HepDES19 EC50

Row | Compound | EC50
3 | CC(=NOCc1ccc(Cl)cc1)c1c(C)cc(=O)n(O)c1O [Compound 1466] | 0.359 ± 0.24 µM
4 | CC(=NOCc1cc(F)ccc1F)c1c(C)cc(=O)n(O)c1O [Compound 1810] | 1.85 ± 0.758 µM

System: not listed separately
Assay: Solubility limit, turbidimetric assay
Assay type: physicochemical
Details: pH 5 (fed simulated intestinal fluid); upper limit 200 µM
Protocol: Solubility limits were determined by a turbidimetric assay, as described ([27]), with the solubility limit being defined as the compound concentration where light scattering began to rise. Two or more replicate assays were performed for each compound at each pH on different days.

Row | Compound | Average Sol (solubility limit)
5 | CC(=NOCc1ccc(Cl)cc1)c1c(C)cc(=O)n(O)c1O [Compound 1466] | > 200 µM
6 | CC(=NOCc1cc(F)ccc1F)c1c(C)cc(=O)n(O)c1O [Compound 1810] | 167 µM

Same assay, conditions: pH 5, replicate 1; upper limit 200 µM

Row | Compound | Sol 1 (solubility limit)
7 | CC(=NOCc1ccc(Cl)cc1)c1c(C)cc(=O)n(O)c1O [Compound 1466] | > 200 µM
8 | CC(=NOCc1cc(F)ccc1F)c1c(C)cc(=O)n(O)c1O [Compound 1810] | 100 µM

Same assay, conditions: pH 5, replicate 2; upper limit 200 µM

Row | Compound | Sol 2 (solubility limit)
9 | CC(=NOCc1ccc(Cl)cc1)c1c(C)cc(=O)n(O)c1O [Compound 1466] | > 200 µM
10 | CC(=NOCc1cc(F)ccc1F)c1c(C)cc(=O)n(O)c1O [Compound 1810] | > 200 µM

Same assay, conditions: pH 5, replicate 3; upper limit 200 µM

Row | Compound | Sol 3 (solubility limit)
11 | CC(=NOCc1cc(F)ccc1F)c1c(C)cc(=O)n(O)c1O [Compound 1810] | > 200 µM

Same assay, conditions: pH 6.5 (fasted simulated intestinal fluid); upper limit 200 µM

Row | Compound | Average Sol (solubility limit)
12 | CC(=NOCc1ccc(Cl)cc1)c1c(C)cc(=O)n(O)c1O [Compound 1466] | > 200 µM
13 | CC(=NOCc1cc(F)ccc1F)c1c(C)cc(=O)n(O)c1O [Compound 1810] | 100 µM

Same assay, conditions: pH 6.5, replicate 1; upper limit 200 µM

Row | Compound | Sol 1 (solubility limit)
14 | CC(=NOCc1ccc(Cl)cc1)c1c(C)cc(=O)n(O)c1O [Compound 1466] | > 200 µM
15 | CC(=NOCc1cc(F)ccc1F)c1c(C)cc(=O)n(O)c1O [Compound 1810] | 100 µM

Same assay, conditions: pH 6.5, replicate 2; upper limit 200 µM

Row | Compound | Sol 2 (solubility limit)
16 | CC(=NOCc1ccc(Cl)cc1)c1c(C)cc(=O)n(O)c1O [Compound 1466] | > 200 µM
17 | CC(=NOCc1cc(F)ccc1F)c1c(C)cc(=O)n(O)c1O [Compound 1810] | 100 µM

Same assay, conditions: pH 7.4 (DMEM-F12 with 10% FBS); upper limit 200 µM

Row | Compound | Average Sol (solubility limit)
18 | CC(=NOCc1ccc(Cl)cc1)c1c(C)cc(=O)n(O)c1O [Compound 1466] | > 200 µM
19 | CC(=NOCc1cc(F)ccc1F)c1c(C)cc(=O)n(O)c1O [Compound 1810] | 167 µM

Same assay, conditions: pH 7.4, replicate 1; upper limit 200 µM

Row | Compound | Sol 1 (solubility limit)
20 | CC(=NOCc1ccc(Cl)cc1)c1c(C)cc(=O)n(O)c1O [Compound 1466] | > 200 µM
21 | CC(=NOCc1cc(F)ccc1F)c1c(C)cc(=O)n(O)c1O [Compound 1810] | > 200 µM

Same assay, conditions: pH 7.4, replicate 2; upper limit 200 µM

Row | Compound | Sol 2 (solubility limit)
22 | CC(=NOCc1ccc(Cl)cc1)c1c(C)cc(=O)n(O)c1O [Compound 1466] | > 200 µM
23 | CC(=NOCc1cc(F)ccc1F)c1c(C)cc(=O)n(O)c1O [Compound 1810] | 100 µM

Same assay, conditions: pH 7.4, replicate 3; upper limit 200 µM

Row | Compound | Sol 3 (solubility limit)
24 | CC(=NOCc1cc(F)ccc1F)c1c(C)cc(=O)n(O)c1O [Compound 1810] | > 200 µM

System: not listed separately
Assay: Parallel artificial membrane permeability assay (PAMPA)
Assay type: in vitro ADME
Details: FeSSIF pH 5
Protocol: Compound Papp values were determined by normalizing the experimental compound absorbance to the compounds’ absorbances at equilibrium, membrane porosity, buffer volume, and time (s). Two or more replicate assays were obtained on separate days for each pH.

Row | Compound | Avg Papp (PAMPA) | Interpretation (PAMPA Papp)
25 | CC(=NOCc1ccc(Cl)cc1)c1c(C)cc(=O)n(O)c1O [Compound 1466] | 20.4 ×10⁻⁶ cm/s | H (H: Papp > 1*10-6)
26 | CC(=NOCc1cc(F)ccc1F)c1c(C)cc(=O)n(O)c1O [Compound 1810] | 20.7 ×10⁻⁶ cm/s | H (H: Papp > 1*10-6)

Same assay, conditions: FeSSIF pH 5, replicate 1

Row | Compound | Papp 1 (PAMPA)
27 | CC(=NOCc1ccc(Cl)cc1)c1c(C)cc(=O)n(O)c1O [Compound 1466] | 23.2 ×10⁻⁶ cm/s
28 | CC(=NOCc1cc(F)ccc1F)c1c(C)cc(=O)n(O)c1O [Compound 1810] | 17.2 ×10⁻⁶ cm/s

Same assay, conditions: FeSSIF pH 5, replicate 2

Row | Compound | Papp 2 (PAMPA)
29 | CC(=NOCc1ccc(Cl)cc1)c1c(C)cc(=O)n(O)c1O [Compound 1466] | 17.6 ×10⁻⁶ cm/s
30 | CC(=NOCc1cc(F)ccc1F)c1c(C)cc(=O)n(O)c1O [Compound 1810] | 24.2 ×10⁻⁶ cm/s

Same assay, conditions: pH 7.4

Row | Compound | Avg Papp (PAMPA) | Interpretation (PAMPA Papp)
31 | CC(=NOCc1ccc(Cl)cc1)c1c(C)cc(=O)n(O)c1O [Compound 1466] | 1.69 ×10⁻⁶ cm/s | H (H: Papp > 1*10-6)
32 | CC(=NOCc1cc(F)ccc1F)c1c(C)cc(=O)n(O)c1O [Compound 1810] | 3.23 ×10⁻⁶ cm/s | H (H: Papp > 1*10-6)

Same assay, conditions: pH 7.4, replicate 1

Row | Compound | Papp 1 (PAMPA)
33 | CC(=NOCc1ccc(Cl)cc1)c1c(C)cc(=O)n(O)c1O [Compound 1466] | 0.299 ×10⁻⁶ cm/s
34 | CC(=NOCc1cc(F)ccc1F)c1c(C)cc(=O)n(O)c1O [Compound 1810] | 1.13 ×10⁻⁶ cm/s

Same assay, conditions: pH 7.4, replicate 2

Row | Compound | Papp 2 (PAMPA)
35 | CC(=NOCc1ccc(Cl)cc1)c1c(C)cc(=O)n(O)c1O [Compound 1466] | 2.48 ×10⁻⁶ cm/s
36 | CC(=NOCc1cc(F)ccc1F)c1c(C)cc(=O)n(O)c1O [Compound 1810] | 2.26 ×10⁻⁶ cm/s

Same assay, conditions: pH 7.4, replicate 3

Row | Compound | Papp 3 (PAMPA)
37 | CC(=NOCc1ccc(Cl)cc1)c1c(C)cc(=O)n(O)c1O [Compound 1466] | 2.29 ×10⁻⁶ cm/s
38 | CC(=NOCc1cc(F)ccc1F)c1c(C)cc(=O)n(O)c1O [Compound 1810] | 7.59 ×10⁻⁶ cm/s

Same assay, conditions: pH 7.4, replicate 4

Row | Compound | Papp 4 (PAMPA)
39 | CC(=NOCc1cc(F)ccc1F)c1c(C)cc(=O)n(O)c1O [Compound 1810] | 1.29 ×10⁻⁶ cm/s

Same assay, conditions: pH 7.4, replicate 5

Row | Compound | Papp 5 (PAMPA)
40 | CC(=NOCc1cc(F)ccc1F)c1c(C)cc(=O)n(O)c1O [Compound 1810] | 3.89 ×10⁻⁶ cm/s

Target: T1, human ribonuclease H1 (huRNase H1) (Homo sapiens, UniProt O60930)
T1 construct: made in house; host or cells: Escherichia coli
T1 sequence (O60930 1-286): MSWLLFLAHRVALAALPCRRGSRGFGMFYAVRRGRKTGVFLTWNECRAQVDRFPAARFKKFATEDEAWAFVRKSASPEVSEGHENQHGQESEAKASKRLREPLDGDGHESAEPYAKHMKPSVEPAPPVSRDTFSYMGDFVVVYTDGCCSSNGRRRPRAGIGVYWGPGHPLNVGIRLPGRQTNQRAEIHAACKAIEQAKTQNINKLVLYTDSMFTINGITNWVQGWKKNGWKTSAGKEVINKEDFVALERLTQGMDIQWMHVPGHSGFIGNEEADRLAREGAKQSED
Assay: Human RNase H1 inhibition, fluorescent biochemical assay
Details: not given
Protocol: Recombinant human ribonuclease H1 (huRNase H1) was expressed in Escherichia coli and purified by nickel affinity chromatography, as described previously ([30]). […] The heteroduplex substrate was prepared, as described by Ponzar et al. ([30]). Reactions were initiated by the addition of MgCl2 (5 mM final) and were performed on a Biotek Synergy HTX multi-mode plate reader at 28°C.
Maximum rates of fluorescence increase were calculated using the Biotek Gen5 v3.15 software and percentage activity was determined for each compound concentration by subtracting rates from no enzyme reactions and normalizing to DMSO reactions. […] Reactions were performed at least three times on separate days.

Row | Compound | Selectivity of HBV replication inhibition over huRNase H1 (huRNase H1 IC50 versus HBV EC50)
41 | CC(=NOCc1ccc(Cl)cc1)c1c(C)cc(=O)n(O)c1O [Compound 1466] | at least 10 fold

Same assay, conditions: recombinant huRNase H1, RNA:DNA heteroduplex substrate

Row | Compound | IC50
42 | CC(=NOCc1cc(F)ccc1F)c1c(C)cc(=O)n(O)c1O [Compound 1810] | 0.82 µM

System: not listed separately
Assay: Microsome stability
Assay type: in vitro ADME, human
Details: human, microsomes
Protocol: Human liver microsomes (gender pooled, 50 individuals) were purchased from BioIVT and stored at −80°C until use. […] Reactions were initiated by addition of 1.2 mM NADPH. […] Microsomal proteins were pelleted at 4,000 × g and the supernatant was analyzed via LCMS/MS. […] The ln percent remaining values were plotted against time, the negative slope was taken (k), and compound half-life (t1/2) was determined using ln2/k. Intrinsic clearance (Clint [µL/min/mg]) was calculated by (V × ln2)/t1/2, where V is the incubation volume (µL) divided by the protein concentration in the reaction (mg) ([31]).

Row | Compound | Half-life
43 | CC(=NOCc1ccc(Cl)cc1)c1c(C)cc(=O)n(O)c1O [Compound 1466] | >30 min

System: HepDES19 cells
Assay: not given
Details: read-out: HepDES19 CC50; 72 h, MTS; highest concentration tested 100 µM; mean ± SD

Row | Compound | CC50
44 | CC(=NOCc1ccc(Cl)cc1)c1c(C)cc(=O)n(O)c1O [Compound 1466] | 46.6 ± 13.6 µM
45 | CC(=NOCc1cc(F)ccc1F)c1c(C)cc(=O)n(O)c1O [Compound 1810] | > 100 µM
